The values below come from patent US4774381A, “Herbicide resistant tobacco” (E. I. Du Pont de Nemours and Company, priority 1985, dated 1988).

The test system of experiment [1] is H1 callus culture. Nature of the experiment: Callus growth on chlorsulfuron-supplemented medium. Further: key: Callus cultures capable of growth on this medium are designated R (resistant); S denotes sensitive callus cultures that did not grow in the presence of the herbicide. In kind it is cell-based, Nicotiana tabacum. The following applies: chlorsulfuron at 5 ppb (14 nM). The procedure:
(§1) Table 7, below, indicates sensitivity to chlorsulfuron of ALS activities in progeny of an S4/+ heterozygote. Data are presented as percent of ALS activity in the absence of chlorsulfuron. Each number represents the average of at least three independent experiments. Callus cultures initiated from the individual isolates were tested for growth on medium supplemented with chlorsulfuron at 5 ppb (14 nM).

The subject of experiment [2] is Isolate 30 (S4/S4) callus culture. Nature of the experiment: Callus growth on chlorsulfuron-supplemented medium. Further: key: Callus cultures capable of growth on this medium are designated R (resistant); S denotes sensitive callus cultures that did not grow in the presence of the herbicide. In kind it is cell-based, Nicotiana tabacum. The following applies: chlorsulfuron at 5 ppb (14 nM). The method, then:
as §1

Experiment [3] concerns Isolate 9 (S4/+) callus culture. Nature of the experiment: Callus growth on chlorsulfuron-supplemented medium. Further: key: Callus cultures capable of growth on this medium are designated R (resistant); S denotes sensitive callus cultures that did not grow in the presence of the herbicide. The following applies: chlorsulfuron at 5 ppb (14 nM). In kind it is cell-based, Nicotiana tabacum. The procedure: as §1
Experiment [4] has as its system Isolate 27 (S4/S4) callus culture. Briefly: Callus growth on chlorsulfuron-supplemented medium. Further: key: Callus cultures capable of growth on this medium are designated R (resistant); S denotes sensitive callus cultures that did not grow in the presence of the herbicide. The following applies: chlorsulfuron at 5 ppb (14 nM). In kind it is cell-based, Nicotiana tabacum. The procedure: as §1
Experiment [5] deals with Isolate 24 (S4/+) callus culture. Briefly: Callus growth on chlorsulfuron-supplemented medium. The following applies: chlorsulfuron at 5 ppb (14 nM). The format is cell-based, Nicotiana tabacum. The method, then:
as §1

Experiment [6] relates to Isolate 1 (+/+) callus culture. Nature of the experiment: Callus growth on chlorsulfuron-supplemented medium. In kind it is cell-based, Nicotiana tabacum. The following applies: chlorsulfuron at 5 ppb (14 nM). The procedure:
as §1

Experiment [7] relates to Isolate 7 (+/+) callus culture. Nature of the experiment: Callus growth on chlorsulfuron-supplemented medium. In kind it is cell-based, Nicotiana tabacum. The following applies: chlorsulfuron at 5 ppb (14 nM). The method, then:
as §1

Experiment [8] concerns highly resistant tobacco cell line "A". Briefly: Growth test of highly resistant cell line. In kind it is cell-based, Nicotiana tabacum. An excerpt: Resistant colonies were selected as they appeared and transferred to medium containing this same elevated level of sulfometuron-methyl. Several cell lines that continued to grow during subsequent passages in the presence of 200 ppb of the herbicide were isolated. […] A large part of this resistance is the result of the S4 mutation, for which this cell line is homozygous. However, because cell line A is inhibited by 100 ppb sulfometuron-methyl to approximatey the same degree as its parent S4/S4 is inhibited by 10 ppb, it appears that the new event increased resistance ten-fold beyond that conferred by the S4/S4 genotype.

Experiment [9] has as its system yeast Saccharomyces cerevisiae. The following applies: medium supplementation; cited from earlier work.

Turning to `COc1nc(C)nc(NC(=O)NS(=O)(=O)c2ccccc2Cl)n1` [Chlorsulfuron, chlorsulfuron], the “Callus Phenotype” value in experiment [1] was “S”; in [2], “R”; in experiment [3] it was “R”; in experiment [4], “R”; in experiment [5] it was “R”; in experiment [6] it was “S”. For the same compound, the “Callus Phenotype” value in [7] was “S”.
In the case of `COC(=O)c1ccccc1S(=O)(=O)NC(=O)Nc1nc(C)cc(C)n1` [Sulfometuron-methyl, sulfometuron-methyl], the “increase of resistance beyond that conferred by the S4/S4 genotype” value in experiment [8] (100 ppb on cell line A versus 10 ppb on S4/S4) is “ten-fold”. In addition, the activity at 0.001 µg/mL in [8] (Nicotiana tabacum, sulfometuron-methyl 1 ppb, cell line "A", read-out: % of fresh weight at 0 ppb) came to 90%. In addition, the activity at 0.01 µg/mL in experiment [8] (Nicotiana tabacum, sulfometuron-methyl 10 ppb, cell line "A", read-out: % of fresh weight at 0 ppb) is 74%. In addition, the activity at 0.1 µg/mL in [8] (Nicotiana tabacum, sulfometuron-methyl 100 ppb, cell line "A", read-out: % of fresh weight at 0 ppb) turned out to be 24%. Besides, the activity at 1 µg/mL in [8] (Nicotiana tabacum, sulfometuron-methyl 1000 ppb, cell line "A", read-out: % of fresh weight at 0 ppb) is 10%. The “concentration allowing growth relative to concentration that completely inhibits a normal cell line” value in experiment [8] (growth at a greatly reduced rate) worked out at 1000 times. For the same compound, the “Fr. wt.” value in experiment [8] (sulfometuron-methyl 1 ppb, cell line "A") turned out to be 2379 ± 243 mg; in [8] (sulfometuron-methyl 10 ppb, cell line "A"), 1952 ± 133 mg; in experiment [8] (sulfometuron-methyl 100 ppb, cell line "A") it was 629 ± 72 mg; in experiment [8] (sulfometuron-methyl 1000 ppb, cell line "A"), 263 ± 83 mg. Also, in experiment [9], the “reversal of growth inhibition” value is “restored by addition of isoleucine, leucine, and valine”.
